# What was measured:
# Assay type in all cases: cell-based
# S. aureus Smith = experiment: MIC against S. aureus Smith; conditions: Staphylococcus aureus
# Text: |MIC: μg/ml (inoculum size = 10^5 /ml) |S = S. aureus Smith
# E. coli EC-14 = experiment: MIC against E. coli EC-14; conditions: Escherichia coli, EC14
# Text: |MIC: μg/ml (inoculum size = 10^5 /ml) |E = E. coli EC-14
# Ps. aeruginosa SR-24 = experiment: MIC against Ps. aeruginosa SR-24; conditions: Pseudomonas aeruginosa, SR24
# Text: |MIC: μg/ml (inoculum size = 10^5 /ml) |P = Ps. aeruginosa SR-24
# [1] = Table I, S = S. aureus Smith, inoculum size = 10^5 /ml
# [2] = Table I, E = E. coli EC-14, inoculum size = 10^5 /ml
# [3] = Table I, P = Ps. aeruginosa SR-24, inoculum size = 10^5 /ml
# [4] = Table II, S (key, unit and inoculum given only in Table I)
# [5] = Table II, E (key, unit and inoculum given only in Table I)
# [6] = Table II, P (key, unit and inoculum given only in Table I)
MIC (S. aureus Smith; [1]),MIC (E. coli EC-14; [2]),MIC (Ps. aeruginosa SR-24; [3]),SMILES,further results
–,–,–,CC(O)[C@H]1C(=O)N2C(C(=O)O)=C(CN3CCCC3)[C@H](C)[C@H]12 (stereo partly drawn) [Table III No. 2],"MIC (S. aureus Smith; Table III, S (key, unit and inoculum given only in Table I)): 0.0125 µg/mL; MIC (E. coli EC-14; Table III, E (key, unit and inoculum given only in Table I)): 0.39 µg/mL; MIC (Ps. aeruginosa SR-24; Table III, P (key, unit and inoculum given only in Table I)): 12.5 µg/mL"
0.0125 µg/mL,0.2 µg/mL,3.13 µg/mL,CC(O)[C@H]1C(=O)N2C(C(=O)[O-])=C(C[n+]3ccc(N)c(N)c3)[C@H](C)[C@H]12 (stereo partly drawn) [Table I No. 21],–
–,–,–,CC(O)[C@H]1C(=O)N2C(C(=O)[O-])=C(C[N+]3(CC(=O)O)CCCC3)[C@H](C)[C@H]12 (stereo partly drawn) [Table II No. 3],MIC (S. aureus Smith; [4]): 0.39 µg/mL; MIC (E. coli EC-14; [5]): 0.39 µg/mL; MIC (Ps. aeruginosa SR-24; [6]): 50 µg/mL
0.0125 µg/mL,0.39 µg/mL,3.13 µg/mL,CSc1ccc[n+](CC2=C(C(=O)[O-])N3C(=O)[C@H](C(C)O)[C@H]3[C@H]2C)c1 (stereo partly drawn) [Table I No. 26],–
0.025 µg/mL,0.39 µg/mL,3.13 µg/mL,Cc1cc[n+](CC2=C(C(=O)[O-])N3C(=O)[C@H](C(C)O)[C@H]3[C@H]2C)cc1 (stereo partly drawn) [Table I No. 6],–
–,–,–,CC(O)[C@H]1C(=O)N2C(C(=O)[O-])=C(C[N+]34CCN(CC3)CC4)[C@H](C)[C@H]12 (stereo partly drawn) [Table II No. 6],MIC (S. aureus Smith; [4]): 0.1 µg/mL; MIC (E. coli EC-14; [5]): 0.39 µg/mL; MIC (Ps. aeruginosa SR-24; [6]): 6.25 µg/mL
–,–,–,"CC(O)[C@H]1C(=O)N2C(C(=O)[O-])=C(C[N+]34CCC(CC3)CC4)[C@H](C)[C@H]12 (stereo partly drawn) [Table II No. 5, 1β-methyl-2-(quinuclidinio-1-yl)-methyl-6α-(1-hydroxyethyl)-1-carba-2-penem-4-carboxylate]",MIC (S. aureus Smith; [4]): 0.025 µg/mL; MIC (E. coli EC-14; [5]): 0.2 µg/mL; MIC (Ps. aeruginosa SR-24; [6]): 6.25 µg/mL
0.025 µg/mL,0.39 µg/mL,3.13 µg/mL,CC(O)[C@H]1C(=O)N2C(C(=O)[O-])=C(C[n+]3cccc(F)c3)[C@H](C)[C@H]12 (stereo partly drawn) [Table I No. 28],–
–,–,–,CC(O)[C@H]1C(=O)N2C(C(=O)[O-])=C(C[N+]3(CC(N)=O)CCCC3)[C@H](C)[C@H]12 (stereo partly drawn) [Table II No. 2],MIC (S. aureus Smith; [4]): 0.1 µg/mL; MIC (E. coli EC-14; [5]): 0.2 µg/mL; MIC (Ps. aeruginosa SR-24; [6]): 12.5 µg/mL
0.025 µg/mL,0.2 µg/mL,6.25 µg/mL,CC(O)[C@H]1C(=O)N2C(C(=O)[O-])=C(C[n+]3cccc4c3CCC4)[C@H](C)[C@H]12 (stereo partly drawn) [Table I No. 8],–
0.0125 µg/mL,0.78 µg/mL,6.25 µg/mL,CC(O)[C@H]1C(=O)N2C(C(=O)[O-])=C(C[n+]3ccsc3N)[C@H](C)[C@H]12 (stereo partly drawn) [Table I No. 2],–
0.0125 µg/mL,0.2 µg/mL,6.25 µg/mL,CC(O)[C@H]1C(=O)N2C(C(=O)[O-])=C(C[n+]3ccc(N)cc3)[C@H](C)[C@H]12 (stereo partly drawn) [Table I No. 20],–
0.05 µg/mL,0.78 µg/mL,3.13 µg/mL,CC(O)[C@H]1C(=O)N2C(C(=O)[O-])=C(C[n+]3cccc(CNC=O)c3)[C@H](C)[C@H]12 (stereo partly drawn) [Table I No. 11],–
0.025 µg/mL,0.1 µg/mL,3.13 µg/mL,CC(O)[C@H]1C(=O)N2C(C(=O)[O-])=C(C[n+]3ccsc3)[C@H](C)[C@H]12 (stereo partly drawn) [Table I No. 1],–
0.05 µg/mL,0.78 µg/mL,3.13 µg/mL,CC(O)[C@H]1C(=O)N2C(C(=O)[O-])=C(C[n+]3cccc(CN)c3)[C@H](C)[C@H]12 (stereo partly drawn) [Table I No. 9],–
0.05 µg/mL,0.76 µg/mL,3.13 µg/mL,CCC(=O)c1cc[n+](CC2=C(C(=O)[O-])N3C(=O)[C@H](C(C)O)[C@H]3[C@H]2C)cc1 (stereo partly drawn) [Table I No. 13],–
0.05 µg/mL,0.78 µg/mL,3.13 µg/mL,CC(O)[C@H]1C(=O)N2C(C(=O)[O-])=C(C[n+]3ccc(CN)cc3)[C@H](C)[C@H]12 (stereo partly drawn) [Table I No. 10],–
0.025 µg/mL,0.39 µg/mL,1.56 µg/mL,CC(O)[C@H]1C(=O)N2C(C(=O)[O-])=C(C[n+]3cccc(C(N)=O)c3)[C@H](C)[C@H]12 (stereo partly drawn) [Table I No. 14],–

# Source: patent publication US5064954A, “Process for producing halomethylcarbapenems” (Shionogi & Co., Ltd., priority 1990, dated 1991)
